# Patent US20100278849A1, “PROSTATIC ACID PHOSPHATASE ANTIGENS” (priority 2004, published 2010)
# “Also recorded” adds a separate entry of the source.
# Assays:
# Type in all cases: cell-based
# [1] = molecular target: HLA-A2*0201 (Homo sapiens, UniProt P04439, D140Y/D185E/D98H/E176V/E277Q/G131W/G231S/I119V/I121R/I166T/I218V/L300P/L318F/N151K/N90K/P208A/P217A/Q86G/Q94H/R138H/R169H/T345S); details: peptide at 100, 10 and 1 μM; compared with positive control influenza M1 peptide; three independent experiments
# [2] = test system: IFN-γ; assay: Cytokine production by splenocytes of immunised C57BL/6-DR4 mice, ELISA; details: relevant versus irrelevant peptide
# Procedure: (§1) After 6 days, the spleens from immunised animals were collected and the cells flushed out using T cell media (RPMI+10% FCS+20 mM HEPES buffer+50 μM 2-mercaptoethanol+50 U/ml penicillin/streptomycin+0.25 μg/ml fungizone). The remaining splenic tissue was digested using an enzyme cocktail (0.1 U/ml DNAase (Sigma)+1.6 mg/ml collagenase (Sigma)) for 1 hour at 37° C. The cell suspension obtained was pooled with the flushed cells, washed once, and the splenocytes were plated in 24 well plates with 10 μg/ml of peptide at a density of 2.5×10^6/ml for FVB/N-DR1 or 3.5×10^6/ml for C57BL/6-DR4. Cells were also cultured with an irrelevant peptide as a control. To measure cytokine production, culture supernatants were collected on day 2 and 5 of the culture for the measurement of cytokine by ELISA.
# (§2) Aliquots of supernatants were removed from CTL cultures on days 1 and 5 and on days 2 and 5 from CD4′ T cell cultures and stored at −20° C. until required. ELISA was used to quantitate concentrations of murine IFN-γ and IL-5 (R&D systems, UK).
# We further investigated HLA-DR class-II restricted responses to PAP peptides that were predicted to bind to HLA-DR1 and HLA-DR4 according to the evidence-based computer assisted algorithm […]. The peptides displaying high binding scores for both HLA-DR alleles were selected and further studied (Table 1). C57BL/6-DR4 mice were immunised with these predicted HLA-DR-restricted PAP and the proliferative and IFN-γ response to peptide stimulation in vitro was monitored by proliferation assays and cytokine measurements. PAP. 64 and PAP.
# [3] = test system: IFN-γ; assay: Cytokine production by splenocytes of immunised FVB/N-DR1 mice, ELISA
# Procedure: as §1, §2
# [4] = test system: HLA-DRβ1*0101; assay: Proliferation of splenocytes from immunised HLA-DR1 mice with peptide-pulsed BM-DC (tritiated thymidine); details: for proliferative response of splenocytes from HLA-DR1 mice: FVB/N-DR1 / HLA-DRβ1*0101 transgenic mice; for number of HLA-DR1 mice whose splenocytes demonstrated specific proliferation: responding/total mice, after re-stimulation in vitro with relevant peptide
# Procedure: (§3) HLA-A2.1/K^b mice were immunised with an emulsion consisting of 100 μg of the putative class-I peptide epitope and 100 μg of non-specific class-II peptide derived from hepatitis B virus in 50% incomplete Freund's adjuvant (IFA). HLA-DR4- and HLA-DR1-transgenic mice were immunised twice at one week interval with 100 μg of class-II peptide emulsified in 50% incomplete Freund's adjuvant (IFA) and 50% PBS. All vaccine were delivered as a 100 μl intradermal bolus inoculum at the base of the tail.
# (§4) 0DC were generated using a method adapted from Inaba et al (Inaba et al. 1992). Briefly, femurs and tibias were harvested aseptically from non-immunised DR1 or DR4 transgenic mice and placed in sterile PBS supplemented with 50 IU/ml penicillin, 50 μg/ml streptomycin, and 0.25 μg/ml fungizone. The marrow was flushed out of the bone using BM-DC media (RPMI 1640 medium supplemented with 2 mM glutamine, 5% FCS, 10 mM Hepes, 501M 2-ME, 50 μg/ml penicillin, 50 μg/ml streptomycin, 0.25 μg/ml fungisone and 10% of supernatant collected from X-63 cells). The cells were washed once in BM-DC media and plated in 24-well plates at 10^6/well in 1 ml DC media and incubated at 37° C. in a 5% CO2 humidified atmosphere. On days 2 and 4, the non-adherent cells (T cells, B cells, granulocytes) were removed, and the remaining cells were cultured in fresh DC medium. After 7-9 days, clusters of loosely adherent DC were dislodged and collected by gently pipetting, before being washed and seeded in 24-well plates at 0.5×10^6 cells/well in 1 ml DC media. Peptides were added at 1 μg/well and the plates were incubated at 37° C. 1 μg/ml of LPS was added after 5 hours, and the plates were incubated overnight at 37° C. in a 5% CO2 in air-humidified atmosphere.
# as §1
# Splenocytes from immunised animals cultured for 6 days in the presence of 10 μg of the test peptide were harvested, washed and counted. CD8+ T cells were depleted from the cell suspension using anti-CD8+ antibody coupled with magnetic beads (Dynal, UK) as per the manufacturers instructions. Cells were then washed in PBS and resuspended at 5×10^5/ml in T cell medium. 100 μl of T cells was then added to all wells. Anti-DR antibody (L243) or isotype control were added to some wells to confirm the MHC specificity of the T-cell response. LPS-treated dendritic cells were harvested, washed and incubated in 1 ml of DC medium with the addition of 10 íg of peptide at 37° C. for 5 hours. After washing, 10^3 peptide-pulsed DC were added to the relevant wells of lymphocyte cultures in 50 íl media. […] Plates were harvested onto 96 Uni/Filter (Packard), the scintillation liquid (Microscint 0, Packard) was added and the plates were counted on a Top-Count counter (Packard). […]
# [5] = test system: HLA-DRβ1*0401; assay: Proliferation of splenocytes from immunised HLA-DR4 mice with peptide-pulsed BM-DC (tritiated thymidine); details: for effect of anti-HLA-DR antibody (L243) on proliferation: not blocked by isotype control; for proliferation of splenocytes from immunised HLA-DR4 mice: re-stimulated in vitro with peptide for 5 days; for number of HLA-DR4 mice whose splenocytes demonstrated specific proliferation: responding/total mice, after re-stimulation in vitro with relevant peptide
# Procedure: as §3, §4, §1
# […] CD8+ T cells were depleted from the cell suspension using anti-CD8+ antibody coupled with magnetic beads (Dynal, UK) as per the manufacturers instructions. Cells were then washed in PBS and resuspended at 5×10^5/ml in T cell medium. 100 μl of T cells was then added to all wells. Anti-DR antibody (L243) or isotype control were added to some wells to confirm the MHC specificity of the T-cell response. LPS-treated dendritic cells were harvested, washed and incubated in 1 ml of DC medium with the addition of 10 íg of peptide at 37° C. for 5 hours. After washing, 10^3 peptide-pulsed DC were added to the relevant wells of lymphocyte cultures in 50 íl media. These plates were then incubated for 3 days at 37° C. in a 5% CO2 in air-humidified atmosphere. Tritriated thymidine was then added to the culture and incubated again for 18 hours. Plates were harvested onto 96 Uni/Filter (Packard), the scintillation liquid (Microscint 0, Packard) was added and the plates were counted on a Top-Count counter (Packard). Results are expressed in counts per minute (cpm) and as a means of the triplicate wells. Statistical analysis was performed using unpaired Student's t test. […]
sequence,measurement,setting,value
ALASCFCFFC (listed as Homo sapiens) [PAP.15],binding to HLA-A2 (T2 cells),[1],no significant binding
PQGFGQLTQLGMEQH (listed as Homo sapiens) [PAP.64],IFN-γ production by splenocytes,[2],not produced specifically
same,IFN-γ or IL-50 (cytokine) production of splenocytes,[3],"failed, with the exception of one out six experiments"
same,proliferative response of splenocytes from HLA-DR1 mice,[4],"failed, with the exception of one out six experiments"
same,number of HLA-DR1 mice whose splenocytes demonstrated specific proliferation,[4],1/6
same,effect of anti-HLA-DR antibody (L243) on proliferation,[5],inhibited by the addition of L243 antibody
same,effect of anti-HLA-DR antibody (L243) on proliferation,[5]; listed as PAP. 64,blocked in the presence of L243 antibody
same,proliferation of splenocytes from immunised HLA-DR4 mice,[5],Specific proliferation
same,number of HLA-DR4 mice whose splenocytes demonstrated specific proliferation,[5],2/5
same,number of HLA-DR4 mice whose splenocytes demonstrated specific proliferation,[5]; listed as PAP. 64,2 out of 5
SKVYDPLYSESVHNF (listed as Homo sapiens) [PAP.207],IFN-γ production by splenocytes,[2],not produced specifically
same,IFN-γ or IL-50 (cytokine) production of splenocytes,[3],"failed, with the exception of one out six experiments"
same,proliferative response of splenocytes from HLA-DR1 mice,[4],"failed, with the exception of one out six experiments"
same,number of HLA-DR1 mice whose splenocytes demonstrated specific proliferation,[4],0/5
same,effect of anti-HLA-DR antibody (L243) on proliferation,[5],inhibited by the addition of L243 antibody
same,effect of anti-HLA-DR antibody (L243) on proliferation,[5]; listed as PAP. 207,blocked in the presence of L243 antibody
same,proliferation of splenocytes from immunised HLA-DR4 mice,[5],Specific proliferation
same,number of HLA-DR4 mice whose splenocytes demonstrated specific proliferation,[5],1/6
same,number of HLA-DR4 mice whose splenocytes demonstrated specific proliferation,[5]; listed as PAP. 207,1 out of 6
IMYSAHDTTV (listed as Homo sapiens) [PAP.284],binding to HLA-A2 (T2 cells),[1],Weak binding
"VLAKELKFV (listed as Homo sapiens) [PAP.30, class-I PAP peptide already known in the art (Peshwa, 1998), reference compound]",binding to HLA-A2 (T2 cells),[1],strong binding; also recorded: moderate HLA-A2 binding
